Common to all, as to assay type: cell-based
The test system of one experiment is endothelial cells. Description: Endothelial cell migration assay, fibronectin-coated transwell. The settings on record: chemotaxis induced by VEGF or bFGF. How it is done: (§1) The assays were done in double chamber wells separated by […] membrane. Chemotaxis was induced by bFGF (25 ng/mL) in the lower chamber. Endothelial cells or KS cells (5×10^4/mL) were placed in the upper chamber in the presence and absence of test polypeptides. Taxol at 10 ng/mL was used as a known inhibitor of migration. Cell migration across the membrane was quantitated after an overnight incubation.
Angiogenesis is mediated by complex biochemical processes including degradation of the basement membrane under existing blood vessel endothelial cells, followed by proliferation and migration of endothelial cells, followed by formation of capillary loops, and recruitment of vascular smooth muscle cells to encase the newly formed vessels and provide stability. […]
Briefly, wells were coated with fibronectin (25 μg/mL) overnight, and endothelial cells or KS cells were plated in the upper chamber with 100 μL of DMEM/0.4% FCS. […] The plates were incubated for 5 hr at 37° C. and the cells crossing the fibronectin-coated membrane were counted after wiping the cells off the membrane in the upper chamber with a cotton swab.
The cells that traversed the membrane were fixed with Diff-Quik stain according to the manufacturer's instruction (Dade Diagnostics Inc., Aguada, PR). The cells were counted under a microscope at 320× in four randomly selected fields. […]

For another experiment, the system named is T1 cells. Description: Fibroblast proliferation assay (MTT). The conditions noted are these: 5000 T1 cells/well, 7 days. How it is done:
To determine if Saposin B polypeptides had anti-angiogenic activity, a series of overlapping polypeptides were synthesized and tested in the KS Y-1 cell proliferation assay. The overlapping polypeptides are SEQ ID NOS:13 though 42. Cell Proliferation assays in either KS cells or fibroblast. Cells were plated in 48 well plates at equal numbers in appropriate culture medium. Cells were treated with the test compounds at various concentrations on day one, and on day 3. […] KS cells were used to represent the activated endothelial cells, while fibroblast cells represent the control cells. The results are remarkable for the lack of toxicity to the fibroblast relative to the activated endothelial cells/KS cells.

Experiment [1] has as its system KS Y-1 cells. Description: KS Y-1 cell proliferation assay (MTT). The conditions noted are these: concentration not printed, 5 days, MTT. How it is done:
To determine if Saposin B polypeptides had anti-angiogenic activity, a series of overlapping polypeptides were synthesized and tested in the KS Y-1 cell proliferation assay. The overlapping polypeptides are SEQ ID NOS:13 though 42. Cell Proliferation assays in either KS cells or fibroblast. Cells were plated in 48 well plates at equal numbers in appropriate culture medium. Cells were treated with the test compounds at various concentrations on day one, and on day 3. MTT was done on day 5. KS cells were used to represent the activated endothelial cells, while fibroblast cells represent the control cells. The results are remarkable for the lack of toxicity to the fibroblast relative to the activated endothelial cells/KS cells.

Experiment [2] relates to KS Y-1 cells. Description: KS cell migration assay, fibronectin-coated transwell. The conditions noted are these: 50,000 KS Y-1 cells/well, 25 ng/mL bFGF, overnight. How it is done:
as §1
Angiogenesis is mediated by complex biochemical processes including degradation of the basement membrane under existing blood vessel endothelial cells, followed by proliferation and migration of endothelial cells, followed by formation of capillary loops, and recruitment of vascular smooth muscle cells to encase the newly formed vessels and provide stability. KS and endothelial cell migration in the presence of Saposin B was studied in transwell culture plates with 8 μm pore membranes (Costar, Cambridge, Mass.).
Briefly, wells were coated with fibronectin (25 μg/mL) overnight, and endothelial cells or KS cells were plated in the upper chamber with 100 μL of DMEM/0.4% FCS. 500 μL of DMEM/0.4% FCS was added to the lower chamber and incubated at 37° C. for one hour. The test polypeptides, at various concentrations, were added to the upper chamber, and chemotactic agents (VEGF or bFGF at 20 ng/mL) were added to the lower cell-culture chambers. The plates were incubated for 5 hr at 37° C. and the cells crossing the fibronectin-coated membrane were counted after wiping the cells off the membrane in the upper chamber with a cotton swab.
The cells that traversed the membrane were fixed with Diff-Quik stain according to the manufacturer's instruction (Dade Diagnostics Inc., Aguada, PR). The cells were counted under a microscope at 320× in four randomly selected fields. The experiments were done in duplicate and repeated at least three times.

Experiment [3] can be described thus: Activity of truncated recombinant Saposin B (FIG. 1C). The settings on record: cell type not given. From the text: FIG. 1C: Activity of truncated recombinant Saposin B. Saposin (Sap) B 1-69 (consisting of the first 69 amino acids), Sap B 1-42 (consisting of the first 42 amino acids), Sap B 11-81 (consisting of 11-81 amino acids and thus lacking the first 10 amino acids).

The next experiment has as its system KS cell lines. The experiment is described as follows: Activity of recombinant Prosaposin chains on growth of KS cell lines. The settings on record: Saposin C: highest concentration tested 50 μg/mL. An excerpt: In order to determine whether recombinant Saposin B has anti-angiogenic activity, the coding region of each of the Prosaposin chains was amplified from fibroblast cell lines and cloned into both bacterial (pGEX-KG) and eukaryotic (pcDNA 3.1His A) expression vectors.
The PCR products were digested with the respective restriction enzymes and the restriction products were inserted into the pGEX-KG vector for bacterial expression. pGEX-KG vector comprises a glutathione S transferase (GST)-tag at the […] of the insertion site so that a GST-fusion protein is expressed. The GST-tag is used to aid in purification of the recombinant protein. After elution from a glutathione-Sepharose 4B column, the GST-tagged proteins were incubated with thrombin (4 μg/ml) for 4 hr at room temperature (22-25° C.) in 50 mM Tris, pH 8.3, 3 mM CaCl2, 150 mM NaCl to cleave GST from the fusion protein. Free GST was removed from the preparation by passing the digested fusion protein through the glutathione-Sepharose 4B column.
(§2) By SDS-PAGE, the bacterial product was smaller than the eukaryotic protein. Because prokaryotically expressed proteins are not glycosylated, the difference in molecular weights probably represents the presence of carbohydrate in the eukaryotic protein. Recombinant proteins were then tested in KS, endothelial and control cell lines. Activity was found only in KS cell lines and endothelial cells.

In experiment [4] the test system is endothelial cells (HUVEC). Description: Growth inhibition of endothelial cells. The conditions noted are these: Saposin C: highest concentration tested 50 μg/mL. How it is done:
FIG. 1D: Activity of n-terminus decapeptide (DVCQDCIQMV; SEQ ID NO 21).
FIG. 1E: Activity of N-terminus pentapeptide (DVCQC; SEQ ID NO: 28).
as §2

No end group written: not given here.

As to `CC(=O)O[C@H]1C(=O)[C@@]2(C)[C@H]([C@H](OC(=O)c3ccccc3)[C@]3(O)C[C@H](OC(=O)[C@H](O)[C@@H](NC(=O)c4ccccc4)c4ccccc4)C(C)=C1C3(C)C)[C@]1(OC(C)=O)CO[C@@H]1C[C@@H]2O` [paclitaxel, reference compound], the “inhibition of endothelial cell migration” value with endothelial cells was “did not completely inhibit”.
As for GDVCQDCIQMV [SEQ ID NO:19], the “Fibroblast Proliferation, % of Control” value was 91.3 % of Control in the experiment on T1 cells (1 μg/mL), 91.3 % of Control in the experiment with T1 cells (10 μg/mL) and 82.6 % of Control in the experiment on T1 cells (50 μg/mL). The “Cell Proliferation Activity (% of control), KSY-1” value is given as 28 % of control in the experiment on KS Y-1 cells [1] (first of two KSY-1 value columns) and 8 % of control in the experiment on KS Y-1 cells [1] (second of two KSY-1 value columns). The “% Cells Migrating Through Membrane (of Control)” value is given as 78.23 % (of Control) in the experiment on KS Y-1 cells [2] (1 μg/mL), 20.98 % (of Control) with KS Y-1 cells [2] (50 μg/mL) and 40.32 % (of Control) with KS Y-1 cells [2].
As for “Sap B 1-42: truncated recombinant Saposin B consisting of the first 42 amino acids (GDVCQDCIQMVTDIQTAVRTNSTFVQALVEHVKEECDRLGPG; ends and bridges not checked; cysteine pairing not given here; UniProt P07602 195-236, looked up, fragment)”, the “growth inhibition by truncated recombinant Saposin B” value in experiment [3] is “dose dependent growth inhibition”.

B1: Prosaposin: 70 kD glycoprotein, precursor of Saposin A, B, C and D; naturally occurring full-length (protein, listed as Homo sapiens)
chain: MYALFLLASLLGAALAGPVLGLKECTRGSAVWCQNVKTASDCGAVKHCLQTVWNKPTVKSLPCDICKDVVTAAGDMLKDNATEEEILVYLEKTCDWLPKPNMSASCKEIVDSYLPVILDIIKGEMSRPGEVCSALNLCESLQKHLAELNHQKQLESNKIPELDMTEVVAPFMANIPLLLYPQDGPRSKPQPKDNGDVCQDCIQMVTDIQTAVRTNSTFVQALVEHVKEECDRLGPGMADICKNYISQYSEIAIQMMMHMQPKEICALVGFCDEVKEMPMQTLVPAKVASKNVIPALELVEPIKKHEVPAKSDVYCEVCEFLVKEVTKLIDNNKTEKEILDAFDKMCSKLPKSLSEECQEVVDTYGSSILSILLEEVSPELVCSMLHLCSGTRLPALTVHVTQPKDGGFCEVCKKLVGYLDRNLEKNSTKQEILAALEKGCSFLPDPYQKQCDQFVAEYEPVLIEILVEVMDPSFVCLKIGACPSAHKPLLGTEKCIWGPSYWCQNTETAAQCNAVEHCKRHVWN
modifications: prosaposin
notes: 70 kD glycoprotein, precursor of Saposin A, B, C and D; naturally occurring full-length
Take B1: in the experiment on KS cell lines, the “activity against KS cell lines” value is given as “no activity”. In experiment [4], the “activity against endothelial cells” value is listed as “no activity”.

For the origin of these results see patent US6500431B1, “Inhibitors of angiogenesis and tumor growth” (University of Southern California, priority 1998, dated 2002).
